Source: ChEMBL document CHEMBL1132323, “Anti-Helicobacter pylori agents. 3. 2-[(Arylalkyl)guanidino]-4-furylthiazoles” (1999)
Converted amounts (≈) assume the structure as drawn.

Experiments:
Helicobacter pylori [1] = test: Minimum inhibitory concentration that inhibited macroscopic colony growth of Helicobacter pylori; assay type: functional
[2] = target: Histamine H2 receptor (Cavia porcellus) (UniProt P47747); test: Histamine H2 receptor antagonism in isolated guinea pig right atrium at concentration of 1*10e-6 g/mL of histamine hydrochloride; assay type: functional, tissue-based; conditions: Cardiac atrium
Chain of Histamine H2 receptor (Cavia porcellus) (P47747 whole entry, the tested form may be a part): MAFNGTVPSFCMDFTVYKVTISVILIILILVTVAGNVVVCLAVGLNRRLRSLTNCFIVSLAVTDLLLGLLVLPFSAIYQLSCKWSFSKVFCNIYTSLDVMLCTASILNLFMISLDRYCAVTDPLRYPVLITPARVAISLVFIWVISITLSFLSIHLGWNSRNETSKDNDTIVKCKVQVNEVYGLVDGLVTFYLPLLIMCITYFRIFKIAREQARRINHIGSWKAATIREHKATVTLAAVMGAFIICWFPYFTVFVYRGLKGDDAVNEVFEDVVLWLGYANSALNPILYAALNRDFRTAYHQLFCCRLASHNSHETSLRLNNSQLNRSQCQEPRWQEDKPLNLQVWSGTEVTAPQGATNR

Rattus norvegicus = test: Inhibition of histamine stimulated gastric acid secretion in lumen perfused stomach of anesthetized rats at 1 mg/kg i.v. dose; assay type: functional; conditions: route intravenous
Neisseria meningitidis = test: Antimicrobial activity against Neisseria meningitidis; assay type: functional
Campylobacter jejuni = test: Antimicrobial activity against Campylobacter jejuni; assay type: functional
Bacteroides fragilis = test: Antimicrobial activity against Bacteroides fragilis; assay type: functional
Helicobacter pylori [3] = test: Antimicrobial activity against Helicobacter pylori; assay type: functional
Clostridium perfringens [4] = test: (§1) Antimicrobial activity against Clostridium perfringens; assay type: functional, organism-based
Clostridioides difficile [5] = test: (§2) Antimicrobial activity against Clostridium difficile; assay type: functional, organism-based
Neisseria gonorrhoeae = test: Antimicrobial activity against Neisseria gonorrhoeae; assay type: functional
Clostridioides difficile [6] = test: as §2; assay type: functional
Clostridium perfringens [7] = test: as §1; assay type: functional

Row | Compound | MIC (Helicobacter pylori [1]) [µg/mL] | inhibition [2] [%] | further results
1 | COc1ccccc1/N=C(\N)Nc1nc(-c2ccc(CNC(C)=O)o2)cs1 | 0.24 (≈ 0.623 µM) |  | 
2 | CC(=O)NCc1ccc(-c2csc(NC(=N)NCCc3ccccn3)n2)o1 | 0.73 (≈ 1.9 µM) | 0 | 
3 | CC(=O)NCc1ccc(-c2csc(NC(=N)NCCc3ccccc3)n2)o1 | 0.13 (≈ 0.339 µM) | 71 | inhibition in vivo at 1 mg/kg (Rattus norvegicus): 24%
4 | CC(=O)NCc1ccc(-c2csc(NC(=N)NCCNc3ccccc3)n2)o1 | 1.79 (≈ 4.49 µM) |  | 
5 | COc1ccccc1CC/N=C(\N)Nc1nc(-c2cc(-c3ccccc3)c(CNC(C)=O)o2)cs1 | 9.47 (≈ 19.3 µM) |  | 
6 | COc1ccc(C/N=C(\N)Nc2nc(-c3ccc(CNC(C)=O)o3)cs2)cc1 | 0.28 (≈ 0.701 µM) |  | 
7 | CC(=O)NCc1ccc(-c2csc(NC(=N)NCCc3ccncc3)n2)o1 | 1.92 (≈ 4.99 µM) |  | 
8 | BISMUTH SUBSALICYLATE |  |  | MIC (Neisseria meningitidis): 12.5 µg/mL; MIC (Campylobacter jejuni): 7.4 µg/mL; MIC (Bacteroides fragilis): 50 µg/mL; MIC (Helicobacter pylori [3]): 8.7 µg/mL; MIC (Clostridium perfringens [4]): > 100 µg/mL; MIC (Clostridioides difficile [5]): 50 µg/mL; MIC (Neisseria gonorrhoeae): 4.7 µg/mL
9 | COc1ccccc1CC/N=C(\N)Nc1nc(-c2cc(C)c(CNC(C)=O)o2)cs1 | 0.03 (≈ 0.0702 µM) | 0 | 
10 | CC(=O)NCc1ccc(-c2csc(NC(=N)NCCc3ccccc3NC(C)=O)n2)o1 | 4.1 (≈ 9.31 µM) |  | 
11 | COc1ccccc1C/N=C(\N)Nc1nc(-c2ccc(CNC(C)=O)o2)cs1 |  | 26 | 
12 | COc1cccc(C/N=C(\N)Nc2nc(-c3ccc(CNC(C)=O)o3)cs2)c1 |  | 28 | 
13 | CC(=O)NCc1ccc(-c2csc(NC(=N)NCc3ccco3)n2)o1 |  | 46 | 
14 | COc1cccc(CC/N=C(\N)Nc2nc(-c3ccc(CNC(C)=O)o3)cs2)c1 | 0.36 (≈ 0.871 µM) | 70 | inhibition in vivo at 1 mg/kg (Rattus norvegicus): 65%
15 | COc1ccccc1CC/N=C(\N)Nc1nc(-c2cc(CNC(C)=O)co2)cs1 | 2.21 (≈ 5.34 µM) |  | 
16 | CC(=O)NCc1ccc(-c2csc(NC(=N)NCc3ccccc3)n2)o1 |  | 35 | 
17 | COc1ccccc1CC/N=C(\N)Nc1nc(-c2cc(CNC(C)=O)c(C)o2)cs1 | 0.046 (≈ 0.108 µM) | 0 | MIC (Clostridioides difficile [6]): > 100 µg/mL; MIC (Neisseria meningitidis): > 100 µg/mL; MIC (Campylobacter jejuni): 23 µg/mL (≈ 53.8 µM); MIC (Bacteroides fragilis): > 100 µg/mL; MIC (Clostridium perfringens [7]): > 100 µg/mL; MIC (Neisseria gonorrhoeae): > 100 µg/mL
18 | CC1(C)S[C@@H]2[C@H](NC(=O)[C@H](N)c3ccc(O)cc3)C(=O)N2[C@H]1C(=O)O [AMOXICILLIN] |  |  | MIC (Clostridioides difficile [6]): 0.28 µg/mL (≈ 0.766 µM); MIC (Neisseria meningitidis): 0.056 µg/mL (≈ 0.153 µM); MIC (Campylobacter jejuni): 2.2 µg/mL (≈ 6.02 µM); MIC (Bacteroides fragilis): 2.1 µg/mL (≈ 5.75 µM); MIC (Clostridium perfringens [7]): 0.027 µg/mL (≈ 0.0739 µM); MIC (Helicobacter pylori [3]): 0.021 µg/mL (≈ 0.0575 µM); MIC (Neisseria gonorrhoeae): 7.7 µg/mL (≈ 21.1 µM)

Row | Compound | MIC (Helicobacter pylori [1]) [µg/mL] | inhibition [2] [%] | further results
19 | COc1ccccc1CC/N=C(\N)Nc1nc(-c2ccc(CNC(C)=O)o2)cs1 | 0.052 (≈ 0.126 µM) | 67 | inhibition in vivo at 1 mg/kg (Rattus norvegicus): 54%
20 | (2,5-Dihydroxy-4,7-dioxo-[1,3,2]dioxabismepan-5-yl)-acetic acid | 18 |  | 
21 | COc1ccccc1OCC/N=C(\N)Nc1nc(-c2ccc(CNC(C)=O)o2)cs1 | 2.5 (≈ 5.82 µM) |  | 
22 | CC(=O)NCc1ccc(-c2csc(NC(=N)NCCc3ccco3)n2)o1 | 0.24 (≈ 0.643 µM) | 63 | inhibition in vivo at 1 mg/kg (Rattus norvegicus): 0%
23 | CN/C(=N\CCSCc1nc[nH]c1C)NC#N [CIMETIDINE] | 1130 (≈ 4480 µM) |  | inhibition in vivo at 1 mg/kg (Rattus norvegicus): 53%
24 | CC[C@H]1OC(=O)[C@H](C)[C@@H](O[C@H]2C[C@@](C)(OC)[C@@H](O)[C@H](C)O2)[C@H](C)[C@@H](O[C@@H]2O[C@H](C)C[C@H](N(C)C)[C@H]2O)[C@](C)(OC)C[C@@H](C)C(=O)[C@H](C)[C@@H](O)[C@]1(C)O [CLARITHROMYCIN] | 0.057 (≈ 0.0762 µM) |  | 
25 | CC(=O)NCc1ccc(-c2csc(NC(=N)NCCc3ccccc3[N+](=O)[O-])n2)o1 | 0.14 (≈ 0.327 µM) | 66 | inhibition in vivo at 1 mg/kg (Rattus norvegicus): 39%
26 | CC(=O)NCc1ccc(-c2csc(NC(=N)NCCc3cccs3)n2)o1 | 0.112 (≈ 0.288 µM) | 83 | inhibition in vivo at 1 mg/kg (Rattus norvegicus): 21%
27 | Cc1ncc([N+](=O)[O-])n1CCO [METRONIDAZOLE] | 5.4 (≈ 31.6 µM) |  | 
28 | CC(=O)NCc1ccc(-c2csc(NC(=N)NCc3ccccc3Cl)n2)o1 |  | 50 | 
29 | CC(=O)NCc1ccc(-c2csc(NC(=N)NCc3ccccc3C)n2)o1 |  | 88 | 
30 | CCOc1ccccc1C/N=C(\N)Nc1nc(-c2ccc(CNC(C)=O)o2)cs1 |  | 42 | 
31 | CC(=O)NCc1ccc(-c2csc(NC(=N)NCCCc3ccccc3)n2)o1 |  | 40 | 
32 | CC(=O)NCc1ccc(-c2csc(NC(=N)NCc3ccccc3O)n2)o1 | 5.8 (≈ 15 µM) |  | 
33 | CC(=O)NCc1ccc(-c2csc(NC(=N)NCCc3c[nH]cn3)n2)o1 | 31 (≈ 83 µM) |  | 
34 | CC(=O)NCc1ccc(-c2csc(NC(=N)NCCc3ccccc3N)n2)o1 | 1.01 (≈ 2.53 µM) |  | 
35 | COc1ccc(CC/N=C(\N)Nc2nc(-c3ccc(CNC(C)=O)o3)cs2)cc1 | 0.9 (≈ 2.18 µM) | 27 | inhibition in vivo at 1 mg/kg (Rattus norvegicus): 5%
